Where “and” joins values, the source holds several entries; their conditions need not be identical. Equal entries are not always repeated.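 Cells were grown in 96-well plates and exposed to each compound for 48 hours at five concentrations; endpoints were interpolated linearly between bracketing concentrations, or set to the highest concentration if not reached. GI50 = concentration required for 50% inhibition of growth. Definition used: TGI = concentration required for complete inhibition of growth.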
How the values were obtained:
Experiment in all cases: inhibition of tumour cell growth, NCI panel, 48 h
[1] = test system: ACHN renal
[2] = test system: COLO 205 colon
[3] = test system: HOP-62 NSCLC
[4] = test system: HS 578T breast
[5] = test system: MDA-MB-231 breast
[6] = test system: OVCAR-3 ovarian
[7] = test system: PC-3 prostate
[8] = test system: SN12C renal
[9] = test system: SR leukemia
[10] = test system: UACC-257 melanoma

Row | Structure (SMILES) | GI50 [1] | TGI [1] | GI50 [2] | TGI [2] | GI50 [3] | TGI [3] | GI50 [4] | TGI [4] | GI50 [5] | TGI [5] | GI50 [6] | TGI [6] | GI50 [7] | TGI [7] | GI50 [8] | TGI [8] | GI50 [9] | TGI [9] | GI50 [10] | TGI [10]
1 | O=C(CC(=O)c1ccccc1)c1ccccc1 | 11.5 µM | 34.5 µM | 22.5 µM | > 100 µM | 7.72 µM | 39.6 µM | 25.4 µM | > 100 µM | > 100 µM | > 100 µM | 16.2 µM | 53.5 µM | 25.9 µM | > 100 µM | 52.8 µM | > 100 µM | 11.7 µM | > 100 µM | 23.6 µM | 84.5 µM
2 | Oc1ccc(Cl)cc1-c1cc(-c2ccc(F)cc2)n[nH]1 | 2.34 µM | 7.2 µM | 2.08 µM | 4.85 µM | 2.98 µM | 10.9 µM | 1.71 µM | 6.65 µM | 1.19 µM | 4.35 µM | 1.39 µM | 3.53 µM | 1.96 µM | 8.81 µM | 2.61 µM | 13.3 µM | 1.24 µM | > 100 µM | 2.96 µM | 21 µM
3 | O=[N+]([O-])c1cc(F)c2cccnc2c1O | 6.06 µM | 79.7 µM | 16.2 µM | 54.2 µM | 13.6 µM | > 100 µM | 35.8 µM | > 100 µM | 25.8 µM | > 100 µM | 3.93 µM | > 100 µM | 4.47 µM | > 100 µM | 22.1 µM | > 100 µM | 1.96 µM | 6.96 µM | 15.5 µM | 58.8 µM
4 | ClCC#CCSc1ncnc2c1ncn2CC#CCCl | 1.98 µM | 5.5 µM | 1.56 µM | 3.03 µM | 1.28 µM | 2.67 µM | 2.41 µM | 9.8 µM | 1.5 µM | 3.55 µM | 1.51 µM | 2.95 µM | 1.41 µM | 3.24 µM | 1.55 µM | 3.65 µM | 0.432 µM | 13.8 µM | 1.36 µM | 3.49 µM
5 | O=C1c2ccccc2-c2c1c1ccccc1c(=O)n2-c1ccccc1 |  | 17.1 µM |  | > 100 µM |  | 14.9 µM |  | > 87.4 µM |  | 32.4 µM |  | 34 µM |  | > 100 µM |  | > 100 µM |  | > 100 µM |  | > 100 µM
6 | CCOC(=O)/C(C#N)=C/Nc1ccc(-c2nc3ccccc3[nH]2)cc1 | 25.4 µM | 78 µM | 28.8 µM | > 100 µM | 31.1 µM | 74.7 µM | 24.3 µM | 79.5 µM | 18.1 µM | 45.1 µM | 20.4 µM | 51.6 µM | 29.8 µM | > 100 µM | 19.5 µM | 55.6 µM | 40.8 µM | > 100 µM | 62.1 µM | > 100 µM
7 | CCOC(=O)Cc1csc(NC(=O)COC(=O)c2ccc(OC)cc2)n1 | > 100 µM | > 100 µM | > 95.9 µM | > 100 µM | > 78.8 µM | > 100 µM | > 100 µM | > 100 µM | > 78.3 µM | > 100 µM | 22.4 µM | 46.3 µM | 26.5 µM | > 100 µM | > 100 µM | > 100 µM | 6.04 µM |  | > 100 µM | > 100 µM
8 | O=C(Nc1cccc(C(F)(F)F)c1)c1cc(Br)cc(Br)c1O |  | 9.29 µM |  | 9.71 µM |  | > 10 µM |  | > 10 µM |  | > 10 µM |  | 6.14 µM |  | 7.28 µM |  | > 10 µM |  | > 10 µM |  | 6.93 µM
9 | CCCCCc1c(C)[nH]c(/C=C2\N=C(c3ccc[nH]3)C=C2OCc2ccccc2)c1C | 0.0514 µM and 0.0324 µM | 0.941 µM and 0.75 µM | 0.0436 µM and 0.026 µM | 0.661 µM and 0.159 µM | 0.164 µM and 0.0925 µM | 1.89 µM and 1.37 µM | 0.0962 µM and 0.0277 µM | 0.697 µM and 0.238 µM | 0.0244 µM | 0.257 µM and 0.0768 µM | 0.0447 µM and 0.0264 µM | 0.463 µM and 0.139 µM | 0.0413 µM and 0.0183 µM | 2.06 µM and 1.17 µM | 0.0703 µM and 0.0458 µM | 1.43 µM and 0.268 µM | 0.0226 µM and 0.025 µM |  | 0.191 µM and 0.0767 µM | 1.53 µM and 0.668 µM
10 | COc1ccc(-c2c(N)n[nH]c2-c2cc(OC)c(OC)c(OC)c2)cc1 | 2.03 µM | > 100 µM | 0.363 µM |  | 0.387 µM | > 100 µM | 0.0782 µM | 0.593 µM | 0.56 µM | > 100 µM | 0.04 µM | 0.187 µM | 0.11 µM | > 100 µM | 0.635 µM | > 100 µM | 0.0308 µM | 29.1 µM | 23.6 µM | > 100 µM
11 | O=C(O)C(=O)CBr | > 35.8 µM and 16.3 µM | > 53.9 µM and 31.6 µM | > 70.1 µM and 17.6 µM | > 100 µM and 39.5 µM | > 100 µM and 19.3 µM | > 100 µM and 38.1 µM | > 100 µM and 29.2 µM | > 100 µM and 72.4 µM | > 100 µM | > 100 µM | > 21.1 µM and 3.61 µM | > 40.2 µM and 13 µM | > 51.6 µM and 19.5 µM | > 81.7 µM and 37.1 µM | > 46.2 µM and 19.1 µM | > 64 µM and 34.5 µM | > 21.1 µM and 25.8 µM | > 64.8 µM and 71.1 µM | > 78.3 µM and 18.4 µM | > 100 µM and 33.6 µM
12 | CN(C)CCNc1nc2ccccc2c2c(=O)c3ccccc3sc12 | 1.61 µM | 4.3 µM | 1.44 µM | 3.08 µM | 1.94 µM | 4.29 µM | 2.89 µM | 11.7 µM | 1.34 µM | 3.64 µM | 2.06 µM | 5.46 µM | 1.84 µM | 4.13 µM | 2.13 µM | 8.85 µM | 1.66 µM | 4.69 µM | 1.76 µM | 3.53 µM
13 | COc1ccc(/C=N/N=C(\[O-])c2ccncc2)cc1F.COc1ccc(/C=N\N=C(/[O-])c2ccncc2)cc1F.[Cu+2] | 39.5 µM | > 100 µM | 19.7 µM | 42.2 µM | 20.3 µM | 41 µM | 18 µM | 60 µM | 32.4 µM | > 100 µM | 27.3 µM | 82.9 µM | 16.8 µM | 35.1 µM | 40.4 µM | > 100 µM | 16.8 µM | 69.6 µM | 17.9 µM | 40.2 µM

From PubChem BioAssay (NCI)
